What was measured:
Acetylcholinesterase [1] = target: Acetylcholinesterase (Electrophorus electricus, UniProt O42275)
Description: Inhibition of Electrophorus electricus AchE using acetylthiocholine iodide as substrate preincubated for 10 mins measured after 15 mins of substrate addition by Ellman's method

[2] = target: T1, Amine oxidase [flavin-containing] A (Rattus norvegicus, UniProt P21396)
T1 sequence (P21396 whole entry): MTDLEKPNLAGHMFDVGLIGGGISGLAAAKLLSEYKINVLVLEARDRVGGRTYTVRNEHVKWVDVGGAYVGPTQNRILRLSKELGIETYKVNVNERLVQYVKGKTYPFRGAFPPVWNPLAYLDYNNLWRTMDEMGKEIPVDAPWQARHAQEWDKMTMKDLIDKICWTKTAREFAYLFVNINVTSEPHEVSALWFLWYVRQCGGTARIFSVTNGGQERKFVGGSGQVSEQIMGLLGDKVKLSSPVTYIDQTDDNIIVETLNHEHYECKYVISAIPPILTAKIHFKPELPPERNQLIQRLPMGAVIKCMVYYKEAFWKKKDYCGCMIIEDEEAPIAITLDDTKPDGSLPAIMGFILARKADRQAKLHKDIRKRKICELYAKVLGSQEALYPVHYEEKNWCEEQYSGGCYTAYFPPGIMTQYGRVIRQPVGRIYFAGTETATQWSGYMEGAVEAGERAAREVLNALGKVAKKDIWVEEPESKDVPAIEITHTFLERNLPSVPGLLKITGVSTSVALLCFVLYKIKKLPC
Description: Inhibition of rat liver mitochondrial MAO-A using [14C]-5-hydroxytryptamine after 30 mins by scintillation counting

[3] = target: T2, Amine oxidase [flavin-containing] B (Rattus norvegicus, UniProt P19643)
T2 sequence (P19643 whole entry): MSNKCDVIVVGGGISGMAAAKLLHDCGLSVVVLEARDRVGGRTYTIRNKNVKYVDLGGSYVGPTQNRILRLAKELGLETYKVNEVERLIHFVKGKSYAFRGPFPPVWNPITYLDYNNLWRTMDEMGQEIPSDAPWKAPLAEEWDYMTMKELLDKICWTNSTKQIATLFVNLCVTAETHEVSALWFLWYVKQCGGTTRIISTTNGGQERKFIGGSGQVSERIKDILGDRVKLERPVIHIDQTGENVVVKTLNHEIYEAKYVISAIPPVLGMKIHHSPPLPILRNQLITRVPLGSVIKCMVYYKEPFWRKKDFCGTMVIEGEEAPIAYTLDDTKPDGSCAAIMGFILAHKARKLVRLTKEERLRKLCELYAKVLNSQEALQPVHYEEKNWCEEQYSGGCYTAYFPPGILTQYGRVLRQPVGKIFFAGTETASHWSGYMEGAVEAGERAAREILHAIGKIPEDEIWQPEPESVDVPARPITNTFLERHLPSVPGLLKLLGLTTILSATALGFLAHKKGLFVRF
Description: Inhibition of rat liver mitochondrial MAO-B using [14C]-phenylethylamine after 30 mins by scintillation counting

Cholinesterase [4] = target: Cholinesterase (Equus caballus, UniProt P81908)
Sequence of Cholinesterase (Equus caballus, UniProt P81908) (P81908 whole entry): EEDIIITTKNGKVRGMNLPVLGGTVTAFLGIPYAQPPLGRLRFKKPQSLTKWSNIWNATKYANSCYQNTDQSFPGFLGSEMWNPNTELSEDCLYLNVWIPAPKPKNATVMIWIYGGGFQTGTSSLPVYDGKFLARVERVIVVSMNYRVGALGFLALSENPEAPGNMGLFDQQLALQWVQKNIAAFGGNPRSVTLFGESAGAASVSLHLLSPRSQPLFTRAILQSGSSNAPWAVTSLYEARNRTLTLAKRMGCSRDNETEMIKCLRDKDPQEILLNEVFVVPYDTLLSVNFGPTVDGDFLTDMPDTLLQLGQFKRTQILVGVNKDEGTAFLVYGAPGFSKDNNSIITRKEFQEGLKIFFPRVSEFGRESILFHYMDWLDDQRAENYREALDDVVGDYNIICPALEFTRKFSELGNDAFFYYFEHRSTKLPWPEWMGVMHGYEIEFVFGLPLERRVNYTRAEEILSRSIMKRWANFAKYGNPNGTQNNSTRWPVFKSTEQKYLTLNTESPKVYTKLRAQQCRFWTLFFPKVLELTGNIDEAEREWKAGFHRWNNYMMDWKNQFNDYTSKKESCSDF
Description: Inhibition of equine serum BuchE using butyrylthiocholine iodide as substrate preincubated for 10 mins measured after 15 mins of substrate addition by Ellman's method

[5] = target: T1, Amine oxidase [flavin-containing] A; experiment: Irreversible inhibition of rat liver mitochondrial MAO-A using 5-hydroxytryptamine as substrate at 6 nM preincubated for 30 mins measured after three consecutive centrifugation; settings: 0.006 µM
Acetylcholinesterase [6] = target: T3, Acetylcholinesterase (Homo sapiens, UniProt P22303); experiment: Inhibition of cerebral human recombinant AchE expressed in HEK293 cells using acetylthiocholine iodide as substrate preincubated for 10 mins measured after 15 mins of substrate addition by Ellman's method
T3 sequence (P22303 whole entry): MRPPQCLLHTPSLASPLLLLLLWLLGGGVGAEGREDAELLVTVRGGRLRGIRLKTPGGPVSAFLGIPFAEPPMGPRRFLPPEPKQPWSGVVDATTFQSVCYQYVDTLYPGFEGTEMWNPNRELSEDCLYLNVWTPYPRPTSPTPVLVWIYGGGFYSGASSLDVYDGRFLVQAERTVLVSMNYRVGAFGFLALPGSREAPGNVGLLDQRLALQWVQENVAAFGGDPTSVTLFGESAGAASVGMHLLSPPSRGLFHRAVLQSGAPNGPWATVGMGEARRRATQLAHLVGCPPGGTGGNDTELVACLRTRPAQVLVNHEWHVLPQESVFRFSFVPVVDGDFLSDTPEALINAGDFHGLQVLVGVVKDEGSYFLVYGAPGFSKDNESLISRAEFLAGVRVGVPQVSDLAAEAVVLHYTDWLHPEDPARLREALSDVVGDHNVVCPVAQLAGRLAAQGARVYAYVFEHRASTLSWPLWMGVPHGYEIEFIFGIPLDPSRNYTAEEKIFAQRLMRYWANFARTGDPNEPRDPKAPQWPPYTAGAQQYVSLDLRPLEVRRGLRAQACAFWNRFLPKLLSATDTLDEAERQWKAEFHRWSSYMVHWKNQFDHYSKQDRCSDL

Cholinesterase [7] = target: Cholinesterase (Homo sapiens, UniProt P06276); experiment: Inhibition of human serum BuchE using butyrylthiocholine iodide as substrate preincubated for 10 mins measured after 15 mins of substrate addition by Ellman's method
Sequence of Cholinesterase (Homo sapiens, UniProt P06276) (P06276 whole entry): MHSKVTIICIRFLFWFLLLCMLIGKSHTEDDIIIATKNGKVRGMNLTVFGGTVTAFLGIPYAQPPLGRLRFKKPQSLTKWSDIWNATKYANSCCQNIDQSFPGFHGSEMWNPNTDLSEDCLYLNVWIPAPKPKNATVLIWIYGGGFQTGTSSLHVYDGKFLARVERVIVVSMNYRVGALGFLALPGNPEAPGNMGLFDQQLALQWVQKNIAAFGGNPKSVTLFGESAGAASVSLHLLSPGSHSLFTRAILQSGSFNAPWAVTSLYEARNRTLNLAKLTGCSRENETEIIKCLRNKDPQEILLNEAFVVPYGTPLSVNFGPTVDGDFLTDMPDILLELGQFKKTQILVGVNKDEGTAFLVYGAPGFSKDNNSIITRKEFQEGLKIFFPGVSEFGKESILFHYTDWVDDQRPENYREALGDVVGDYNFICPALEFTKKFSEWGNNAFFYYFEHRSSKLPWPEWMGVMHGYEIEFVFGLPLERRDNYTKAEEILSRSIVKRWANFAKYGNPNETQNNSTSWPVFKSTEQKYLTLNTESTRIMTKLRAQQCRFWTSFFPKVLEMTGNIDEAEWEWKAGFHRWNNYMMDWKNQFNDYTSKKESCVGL

[8] = target: T1, Amine oxidase [flavin-containing] A; experiment: Irreversible inhibition of rat liver mitochondrial MAO-A using 5-hydroxytryptamine as substrate at 6 nM preincubated for 30 mins measured after three consecutive washes with buffer; settings: 0.006 µM
[9] = target: T1, Amine oxidase [flavin-containing] A; experiment: Time-dependent inhibition of rat liver mitochondrial MAO-A using 5-hydroxytryptamine at 6 nM by scintillation counting; settings: 0.006 µM
[10] = target: T2, Amine oxidase [flavin-containing] B; experiment: Reversible inhibition of rat liver mitochondrial MAO-B using phenylethylamine assessed as recovered enzyme activity at 45 nM preincubated for 30 mins measured after three consecutive washes with buffer; set-up: scale not given: the % may be the effect or the level left; settings: read-out: Activity
[11] = target: T2, Amine oxidase [flavin-containing] B; experiment: Time-dependent inhibition of rat liver mitochondrial MAO-B using phenylethylamine at 45 nM; settings: 0.045 µM
[12] = target: T1, Amine oxidase [flavin-containing] A; experiment: Irreversible inhibition of rat liver mitochondrial MAO-A using 5-hydroxytriptamine as substrate assessed as substrate consumption at 10 nM measured up to 420 mins; settings: 7 h, 0.01 µM
[13] = target: T2, Amine oxidase [flavin-containing] B; experiment: Irreversible inhibition of rat liver mitochondrial MAO-B using phenylethylamine as substrate assessed as substrate consumption at 100 nM measured up to 420 mins; settings: 7 h, 0.1 µM
[14] = target: T2, Amine oxidase [flavin-containing] B; experiment: Non-competitive inhibition of rat liver mitochondrial MAO-B using phenylethylamine as substrate by Line-Weaver Burk plot analysis
[15] = target: T1, Amine oxidase [flavin-containing] A; experiment: Irreversible inhibition of rat liver mitochondrial MAO-A using 5-hydroxytriptamine as substrate assessed as substrate consumption at 10 nM preincubated for 30 mins measured up to 420 mins; settings: 7 h, 0.01 µM
[16] = target: T2, Amine oxidase [flavin-containing] B; experiment: Reversible inhibition of rat liver mitochondrial MAO-B using phenylethylamine as substrate assessed as substrate consumption at 100 nM preincubated for 30 mins measured up to 420 mins; settings: 7 h, 0.1 µM
Acetylcholinesterase [17] = target: T3, Acetylcholinesterase; settings: 100 uM
Description: Inhibition of human AChE-induced amyloid beta (1 to 40) aggregation at 100 uM measured every 10 mins for 10 hrs by thioflavin T-based fluorometric analysis

Sequence of Acetylcholinesterase (Electrophorus electricus, UniProt O42275) (O42275 whole entry): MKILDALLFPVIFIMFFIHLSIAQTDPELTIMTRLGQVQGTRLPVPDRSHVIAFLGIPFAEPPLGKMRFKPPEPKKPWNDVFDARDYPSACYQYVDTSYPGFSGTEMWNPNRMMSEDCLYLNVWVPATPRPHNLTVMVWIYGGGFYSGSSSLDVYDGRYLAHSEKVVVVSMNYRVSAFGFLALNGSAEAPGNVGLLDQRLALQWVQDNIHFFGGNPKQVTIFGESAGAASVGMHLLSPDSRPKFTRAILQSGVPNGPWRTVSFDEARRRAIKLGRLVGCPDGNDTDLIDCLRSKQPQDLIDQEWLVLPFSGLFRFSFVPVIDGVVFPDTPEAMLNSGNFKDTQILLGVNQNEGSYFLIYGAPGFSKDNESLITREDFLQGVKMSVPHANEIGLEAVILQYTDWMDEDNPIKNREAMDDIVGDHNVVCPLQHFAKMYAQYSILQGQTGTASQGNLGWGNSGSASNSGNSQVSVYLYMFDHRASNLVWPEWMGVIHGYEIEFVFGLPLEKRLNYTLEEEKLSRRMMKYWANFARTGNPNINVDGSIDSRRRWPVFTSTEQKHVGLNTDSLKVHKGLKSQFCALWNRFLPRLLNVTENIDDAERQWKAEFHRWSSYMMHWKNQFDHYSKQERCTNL

Which results are given for `C#CCN(C)Cc1cc2cc(OCCN3CCC(Cc4ccccc4)CC3)ccc2n1C`?
IC50 (Acetylcholinesterase [1]): > 100000 nM; IC50 [2]: 140 nM; IC50 [3]: 1400 nM

For `C#CCN(C)Cc1cc2cc(OCCCCC3CCN(Cc4ccccc4)CC3)ccc2n1C`, which IC50 [2] is on record?
The IC50 was 10 nM.

What about the IC50 [3] of the same molecule?
Its IC50 is 2700 nM.

What does the source list for `C#CCN(C)Cc1cc2cc(OCCCN3CCN(Cc4ccccc4)CC3)ccc2n1C`?
IC50 (Acetylcholinesterase [1]): > 100000 nM; IC50 [2]: 31 nM; IC50 [3]: 1600 nM

What does the source list for `C#CCN(C)Cc1cc2cc(OCc3ccccc3)ccc2n1C`?
IC50 (Acetylcholinesterase [1]): > 100000 nM; IC50 (Cholinesterase [4]): > 100000 nM

`C#CCN(C)Cc1cc2cc(OCCCN3CCC(Cc4ccccc4)CC3)ccc2n1C` was tested. Which IC50 [3] did it give?
The IC50 was 11000 nM.

`C#CCN(C)Cc1cc2cc(OCCCC3CCN(Cc4ccccc4)CC3)ccc2n1C` was tested. Which “inhibition (INH)” value [5] did it give?
The value was “Active”.

And the IC50 (Acetylcholinesterase [6])?
The IC50 was 380 nM.

And the IC50 (Cholinesterase [7])?
Its IC50 is 1700 nM.

What about the “inhibition (INH)” value [8] of the same molecule?
The value was “Active”.

And the TDI [9]?
Its TDI is “Active”.

What about the activity at 0.045 µM [10] of the same molecule?
The activity at 0.045 µM was 80.5%.

What about the TDI [11] of the same molecule?
The TDI was “Active”.

And the “inhibition (INH)” value [12]?
Its value is “Active”.

And the “inhibition (INH)” value [13]?
The value was “Active”.

And the Ki [14]?
The Ki was 11 nM.

And the “inhibition (INH)” value [15]?
The value was “Active”.

What about the “inhibition (INH)” value [16] of the same molecule?
The value was “Active”.

What about the inhibition (Acetylcholinesterase [17]) of the same molecule?
The inhibition was 32.4%.
